Earlier results on one molecule are cited in patent US20110308985A1, “COMPOSITION OF A LIPOSOMAL GEL CONTAINING HYDROCORTISONE, ITS METABOLITES, PRECURSORS OR MIXTURES THEREOF AND THE USE THEREOF” (priority 2009, published 2011).

The structures appear in SMILES notation.

Regarding `C[C@]12CCC(=O)C=C1CC[C@@H]1[C@@H]2[C@@H](O)C[C@@]2(C)[C@H]1CC[C@]2(O)C(=O)CO` [hydrocortisone, (11beta)-11,17,21-trihydroxypregn-4-ene-3,20-dione], the “serum peak relative to the physiological morning peak” value (about 1 hour after intake of a tablet) is given as “over 3 times”. For the same molecule, the biological half-life entry (oral administration form) is reported as “about 100 minutes”.
